# Biological target: T1, long form of human GPR120 (Homo sapiens, UniProt Q5NUL3)
# T1 construct: host or cells: PathHunter CHO-K1 GPR120 β-Arrestin Cell Line
# T1 sequence (Q5NUL3 1-377 isoform Q5NUL3-1): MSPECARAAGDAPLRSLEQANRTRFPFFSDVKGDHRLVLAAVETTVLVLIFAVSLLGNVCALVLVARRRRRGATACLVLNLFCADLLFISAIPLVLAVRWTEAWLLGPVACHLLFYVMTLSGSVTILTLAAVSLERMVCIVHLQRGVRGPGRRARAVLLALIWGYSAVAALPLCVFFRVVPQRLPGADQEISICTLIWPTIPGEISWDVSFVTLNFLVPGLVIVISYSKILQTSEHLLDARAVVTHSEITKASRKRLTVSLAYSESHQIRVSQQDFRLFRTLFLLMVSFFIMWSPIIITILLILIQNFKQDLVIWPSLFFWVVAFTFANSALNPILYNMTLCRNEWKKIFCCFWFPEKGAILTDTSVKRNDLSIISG
# Test: Human GPR120 DiscoveRx PathHunter Beta-Arrestin Assay, Procedure β-arrestin A (3000 cells per well)
# Assay type: cell-based
# Conditions: read-out: GPR120 B-arrestin A EC50
# Text: The binding of an agonist (medium/long chain fatty acids or small molecule agonists) to the G-protein-coupled receptor GPR120 activates phospholipase C, leading to release of intracellular Ca^+2 through the generation of inositol 1,4,5-trisphosphate (InsP3 or IP3). GPR120 activation can also trigger intracellular signaling via recruitment of β-Arrestin. In the present method, agonist-induced activation of the human GPR120 receptor is monitored through the use of PathHunter CHO-K1 GPR120 β-Arrestin Cell Line engineered by DiscoveRx, as detailed below. The cell lines are designed to co-express both the ProLink/Enzyme Donor (PK)-tagged GPCR and the Enzyme Activator (EA)-tagged β-Arrestin fusion proteins. Upon GPR120 receptor stimulation/activation, the EA-tagged β-Arrestin portion is translocated to the tagged receptor, where the two enzyme fragments are brought within close proximity. Under these conditions, these fragments can interact and form an active Beta-gal enzyme complex through Enzyme Fragment Complementation (EFC). This active Beta-gal complex can enzymatically hydrolyse the substrate to produce a detectable light signal; therefore, activation as a function of agonist concentration can be expressed as an EC50 value to determine relative compound activities. This in vitro assay therefore serves to assess compound agonist activity of the GPR120.
# In Procedure β-arrestin A, the cell used were PathHunter CHO-K1 GPR120 β-Arrestin Cell Line, expressing the long form of human GPR120 (Genbank accession number NM_181745), with 3000 cells per well.
# The selected CHO-K1 GPR120 β-Arrestin cells were cultured in Ham's F12 media supplemented with 10% fetal bovine serum (FBS), 1% Glutamine, 1×p/s, 800 μg/ml G418 and 300 μg/ml Hygromycin B (for selection). Cell stocks were maintained and grown in a sub-confluent state using standard cell culture procedures. The day before the experiment, the cells were harvested with non-enzymatic cell dissociation buffer and re-suspended in complete growth media at the desired concentration. A Corning 384-plate was then seeded with the proper number of cells in a volume of 25 μL, per well. The seeded plates were incubated overnight at 37° C.
# On the day of the experiment, the Assay Buffer containing (a) HBSS with Ca^++ and Mg^++, (b) 20 mM HEPES, and (c) 0.1% BSA stabilizer (pH 7.4) was prepared. The growth medium was gently removed from the cell plates and 20 μL of Assay Buffer added to each well. The plate was then incubated at 37° C. for 60 mins. Test compounds were serially diluted in Assay Buffer to desired concentrations (more particularly, to one or more of the following μM concentrations: 25 μM, 12.5 μM, 6.25 μM, 3.125 μM, 1.562 μM, 0.781 μM, 0.391 μM, 0.195 μM, 0.098 μM, 0.049 μM, 0.024 μM, 0.012 μM). Five μl of compound dilution was then added to each well and the plate incubated at 37° C. for 90 mins. The detection reagents were prepared according to the manufacture's instruction. Twelve μL of the detection reagents were added to each well and the plate incubated at room temperature for 60 mins.
# The plates were read on an EnVision instrument, using Protocol name: Luminescence, Plate type: 384 Costar, Measurement height: 3 mm, Measurement time: 1 s, Aperture: 384 Plate aperture. The % activity relative to the positive control was calculated using the following equation:
# The % Activity values were plotted versus the concentration of test compound and fitted to a sigmoidal dose-response curve with a Hill slope=1 (fixed value) using nonlinear regression with GraphPad Prism 5.0 to calculate the EC50 values. The Fitting Equation was: Y=Bottom+(Top−Bottom)/(1+10^((LogEC50−X)*HillSlope)), where X is the log of the concentration and Y is the response.
row,Structure (SMILES),EC50
1,"Cc1c(CCC(=O)O)ccc(OCc2cc(Cl)cc3cc(C=CF)oc23)c1C (mixture of isomers) [Compound 88, 3-(4-((5-Chloro-2-(2-fluorovinyl)benzofuran-7-yl)methoxy)-2,3-dimethylphenyl)propanoic acid]",594 nM
2,"Cc1c(CCC(=O)O)ccc(OCc2cc(F)cc3cc(C(F)(F)F)oc23)c1C [Compound 4, 3-(4-{[5-Fluoro-2-(trifluoromethyl)-1-benzofuran-7-yl]methoxy}-2,3-dimethylphenyl)propanoic acid]",5210 nM
3,"Cc1cc2cc3c(c(COc4ccc(CCC(=O)O)c(C)c4C)c2o1)OCCO3 [Compound 90, 3-{2,3-Dimethyl-4-[(7-methyl-2,3-dihydrofuro[2,3-g][1,4]benzodioxin-5-yl)methoxy]phenyl}propanoic acid]",532 nM
4,"Cc1cc2c(COc3ccc(CCC(=O)O)c(C)c3C)cc(Cl)cc2o1 [Compound 81, 3-{4-[(6-Chloro-2-methyl-1-benzofuran-4-yl)methoxy]-2,3-dimethylphenyl}propanoic acid]",817 nM
5,"CCCc1cc2cc(Cl)cc(COc3ccc(CCC(=O)O)c(C)c3C#N)c2o1 [Compound 41, 3-{4-[(5-Chloro-2-propyl-1-benzofuran-7-yl)methoxy]-3-cyano-2-methylphenyl}propanoic acid]",626 nM
6,"Cc1oc2cccc(COc3ccc(CCC(=O)O)c(C)c3C)c2c1C [Compound 60, 3-{4-[(2,3-Dimethyl-1-benzofuran-4-yl)methoxy]-2,3-dimethylphenyl}propanoic acid]",706 nM
7,"Cc1c(CCC(=O)O)ccc(OCc2cc(F)cc3cc(C4CCCC4)oc23)c1C [Compound 18, 3-{4-[(2-Cyclopentyl-5-fluoro-1-benzofuran-7-yl)methoxy]-2,3-dimethylphenyl}propanoic acid]",1670 nM
8,"Cc1oc2c(COc3ccc(CCC(=O)O)c(C)c3C)cc(F)cc2c1F [Compound 5, 3-{4-[(3,5-Difluoro-2-methyl-1-benzofuran-7-yl)methoxy]-2,3-dimethylphenyl}propanoic acid]",949 nM
9,"Cc1cc2cc(Cl)cc(COc3ccc(CCC(=O)O)c(C)c3C)c2s1 [Compound 91, 3-{4-[(5-Chloro-2-methyl-1-benzothiophen-7-yl)methoxy]-2,3-dimethylphenyl}propanoic acid]",629 nM
10,"Cc1c(CCC(=O)O)ccc(OCc2cc(F)cc3cc(C#N)oc23)c1C [Compound 49, 3-{4-[(2-Cyano-5-fluoro-1-benzofuran-7-yl)methoxy]-2,3-dimethylphenyl}propanoic acid]",507 nM
11,"Cc1cc2cc3c(c(COc4ccc(CCC(=O)O)c(C)c4C)c2o1)OCO3 [Compound 82, 3-{2,3-Dimethyl-4-[(6-methylfuro[2,3-f][1,3]benzodioxol-4-yl)methoxy]phenyl}propanoic acid]",851 nM
12,"Cc1c(CCC(=O)O)ccc(OCc2cc(F)cc3cc(CC(C)C)oc23)c1C [Compound 23, 3-(4-{[5-Fluoro-2-(2-methylpropyl)-1-benzofuran-7-yl]methoxy}-2,3-dimethylphenyl)propanoic acid]",470 nM
13,"Cc1c(CCC(=O)O)ccc(OCc2cc(F)cc3cc(C(F)F)oc23)c1C [Compound 32, 3-(4-{[2-(Difluoromethyl)-5-fluoro-1-benzofuran-7-yl]methoxy}-2,3-dimethylphenyl)propanoic acid]",2910 nM

# Other lines, results leading:
row,EC50,Structure (SMILES)
1,409 nM,"Cc1c(CCC(=O)O)ccc(OCc2cc(Cl)cc3cc(CC(F)F)oc23)c1C [Compound 87, 3-(4-{[5-Chloro-2-(2,2-difluoroethyl)-1-benzofuran-7-yl]methoxy}-2,3-dimethylphenyl)propanoic acid]"
2,77 nM,"CCc1cc2cc(OC(F)F)cc(COc3ccc(CCC(=O)O)c(C)c3C)c2o1 [Compound 57, 3-(4-{[5-(Difluoromethoxy)-2-ethyl-1-benzofuran-7-yl]methoxy}-2,3-dimethylphenyl)propanoic acid]"
3,146 nM,"CCCc1cc2cc(Cl)cc(COc3ccc(CCC(=O)O)c(F)c3F)c2o1 [Compound 59, 3-{4-[(5-Chloro-2-propyl-1-benzofuran-7-yl)methoxy]-2,3-difluorophenyl}propanoic acid]"
4,45 nM,"Cc1cc2c(F)c(OC(F)(F)F)c(F)c(COc3ccc(CCC(=O)O)c(C)c3C)c2o1 [Compound 71, 3-(4-{[4,6-Difluoro-2-methyl-5-(trifluoromethoxy)-1-benzofuran-7-yl]methoxy}-2,3-dimethylphenyl)propanoic acid]"
5,73 nM,"Cc1cc2cc(OC(F)(F)F)cc(COc3ccc(CCC(=O)O)c4c3CCC4)c2o1 [Compound 55, 3-(7-{[2-Methyl-5-(trifluoromethoxy)-1-benzofuran-7-yl]methoxy}-2,3-dihydro-1H-inden-4-yl)propanoic acid]"
6,108 nM,"Cc1c(CCC(=O)O)ccc(OCc2cc(Cl)cc3cnn(C)c23)c1C [Compound 7, 3-{4-[(5-Chloro-1-methyl-1H-indazol-7-yl)methoxy]-2,3-dimethylphenyl}propanoic acid]"
7,460 nM,"Cc1cc2cc(Cl)c(C)c(COc3c(F)cc(CCC(=O)O)cc3F)c2o1 [Compound 86, 3-{4-[(5-Chloro-2,6-dimethyl-1-benzofuran-7-yl)methoxy]-3,5-difluorophenyl}propanoic acid]"
8,154 nM,"Cc1nc2c(COc3ccc(CCC(=O)O)c(C)c3C)cc(Cl)cc2s1 [Compound 98, 3-{4-[(6-Chloro-2-methyl-1,3-benzothiazol-4-yl)methoxy]-2,3-dimethylphenyl}propanoic acid]"
9,374 nM,"CCc1cc2cc(OC(F)(F)F)cc(COc3ccc(CCC(=O)O)c4c3CCC4)c2o1 [Compound 52, 3-(7-{[2-Ethyl-5-(trifluoromethoxy)-1-benzofuran-7-yl]methoxy}-2,3-dihydro-1H-inden-4-yl)propanoic acid]"
10,455 nM,"CCc1cc2cc(F)cc(COc3c(F)cc(CCC(=O)O)cc3F)c2o1 [Compound 17, 3-{4-[(2-Ethyl-5-fluoro-1-benzofuran-7-yl)methoxy]-3,5-difluorophenyl}propanoic acid]"
11,169 nM,"Cc1c(CCC(=O)O)ccc(OCc2cc(OC(F)(F)F)cc3cc(C=CF)oc23)c1C (mixture of isomers) [Compound 97, 3-(4-{[2-(2-Fluoroethenyl)-5-(trifluoromethoxy)-1-benzofuran-7-yl]methoxy}-2,3-dimethylphenyl)propanoic acid]"
12,434 nM,"Cc1nc2cc(Cl)cc(COc3ccc(CCC(=O)O)c(C)c3C)c2o1 [Compound 84, 3-{4-[(5-Chloro-2-methyl-1,3-benzoxazol-7-yl)methoxy]-2,3-dimethylphenyl}propanoic acid]"
13,148 nM,"Cc1c(CCC(=O)O)ccc(OCc2cc(OC(F)(F)F)cc3cc(CC(F)F)oc23)c1C [Compound 96, 3-(4-{[2-(2,2-Difluoroethyl)-5-(trifluoromethoxy)-1-benzofuran-7-yl]methoxy}-2,3-dimethylphenyl)propanoic acid]"
14,240 nM,"CCc1cc2cc(Cl)c(OC(C)C)c(COc3ccc(CCC(=O)O)c(C)c3C)c2o1 [Compound 65, 3-(4-{[5-Chloro-2-ethyl-6-(1-methylethoxy)-1-benzofuran-7-yl]methoxy}-2,3-dimethylphenyl)propanoic acid]"

# Source: patent US9562053B2, “Benzo-fused heterocyclic derivatives useful as agonists of GPR120” (Janssen Pharmaceutica NV, priority 2013, dated 2017)
